# Key:
# [1] = tested on: P. aeruginosa strain 19660; experiment: corneal infection model, P. aeruginosa ATCC strain 19660; format: in vivo, B6 mice
# Experimental: Eight week old female B6 mice (The Jackson Laboratory, Bar Harbor, Me.) were used in these experiments. The left cornea of each anesthetized mouse was scarified with three parallel 1 mm incisions using a sterile 25⅝ gauge needle under a stereoscopic microscope. […] Eyes were examined macroscopically at 1 day post-infection (p.i.) and at times described below to ensure that all mice were similarly infected and to monitor the course of disease. All animals were treated humanely and in full compliance with the Association for Research in Vision and Ophthalmology resolution on usage and treatment of animals in research.
# Worth, Tex.) begun at 18 h p.i. and then 3×/day for 7 days. Initiation of ICE inhibitor therapy at 18 h p.i. was chosen to test experimentally in order to provide more clinically relevant data. In addition, by this time point, it would be expected that a patient would notice ocular symptoms such as haziness, discomfort and pain and would seek care.
# Mice (n=5/group) were color coded and examined in masked fashion by two independent observers at 1, 3, 5 and 7 days p.i. to grade the severity of disease after P. aeruginosa infection.
# The samples were subjected to three freeze-thaw cycles and then centrifuged at 14,000 rpm for 20 min. […] The change in absorbance at 460 nm was continuously monitored for 5 min. The results were expressed as units of MPO/cornea.
# For this, individual corneas were homogenized in sterile PBS and aliquots (100 μl) of serial dilutions were plated onto Pseudomonas isolation agar (Difco, Detroit, Mich.) plates in triplicate. Plates were incubated for 24 h at 37° C. Results were expressed as log10 number of CFU/cornea±SEM.
# Corneas (n=5/group) were removed at 7 days p.i. and immediately stored at −70° C. Before analysis, individual corneas were homogenized in 0.1% Tween 20-PBS with a glass Kontes pestle (Fisher, Itasca, Ill.) centrifuged at 5000×g for 10 minutes at 4° C., and supernatants were used to quantify IL-1β and MIP-2 proteins. Results are reported as pg/ml.
# The change in clinical score with time within a group was tested by the Friedman two-way analysis of variance by ranks. The difference in clinical score at each experimental time point between the ICE inhibitor and placebo treated B6 mice was tested by the Mann-Whitney U test. An unpaired, two-tailed Student's t-test was used to determine statistical significance for data from MPO assay, bacterial counts and ELISA analyses between treated and control groups. Mean differences were considered significant at P≦0.05. Experiments were repeated at least twice to ensure reproducibility and representative data from a single experiment are shown.
# [2] = tested on: Pseudomonas isolates resistant to ciprofloxacin; conditions: 22 ciprofloxacin-resistant isolates of 141 culture-proven cases; cited from earlier work
structure (smiles),measurement,setting,value
O=C(O)c1cn(C2CC2)c2cc(N3CCNCC3)c(F)cc2c1=O [ciprofloxacin],histopathological examination of eyes,[1]; 7 days p.i.,heavier inflammatory cells infiltrate in the anterior chamber and adherent to the corneal endothelium
same,viable bacteria in cornea (plate counts),"[1]; 7 days p.i., ICE inhibitor vs. placebo (P=0.02)",No bacterial colonies were isolated
same,protein levels of MIP-2 in cornea (ELISA),"[1]; 7 days p.i., ICE inhibitor vs. vehicle (P=0.012), with ciprofloxacin vs. vehicle and ciprofloxacin (P=0.04)",markedly reduced
same,protein levels of IL-1β in cornea (ELISA),"[1]; 7 days p.i., ICE inhibitor vs. vehicle (P=0.023), with ciprofloxacin vs. vehicle and ciprofloxacin (P=0.036)",markedly reduced
same,slit lamp microscopy of cornea,[1]; day 7 p.i.,heavier cellular infiltration in the cornea as well as in the anterior chamber
same,mean MIC,[2],43 µg/mL

# Source: US20050233974A1, “Treating infectious diseases using ice inhibitors” (priority 2003, published 2005)
